The term melting point denotes the temperature, or range, at which the solid turns liquid.

Drawing on patent US6465499B1 (priority 1996, dated 2002), this text covers melting point and Efficacy in % for 5 compounds.

For one series, the system named is Phytophthora infestans. It is filed as in vivo. To be noted: tomato young plants, protective spray, rate of application 100 g/ha, evaluated 3 days after inoculation; 0% = as control, 100% = no disease.

Compound `Cc1noc(C)c1S(=O)(=O)n1c(=O)sc2c(C(F)(F)F)cc([N+](=O)[O-])cc21` [Example 6] yielded a melting point of 210 to 213 °C. Moreover, the Efficacy in % in the series on Phytophthora infestans came to 93%.

Regarding `Cc1noc(C)c1S(=O)(=O)n1c(=O)sc2c(C(F)(F)F)cc(C(F)(F)F)cc21` [Example 7], the melting point lay in the range of 152 to 156 °C. In addition, the Efficacy in % with Phytophthora infestans is on record as 93%.

With `Cc1noc(C)c1S(=O)(=O)n1c(=O)sc2c([N+](=O)[O-])cc(C(F)(F)F)cc21` [Example 5], the melting point lay within 129 to 133 °C. In the series with Phytophthora infestans, this compound showed an Efficacy in % of 100%.

On to `Cc1noc(C)c1S(=O)(=O)n1c(=O)oc2ccc(Cl)cc21` [Example 4], for which the melting point was 183 to 187 °C. The Efficacy in % with Phytophthora infestans was 86%.

For the compound `Cc1noc(C)c1S(=O)(=O)n1c(=O)oc2c(Cl)cc(Cl)cc21` [Example 3], the melting point is 164 to 166 °C. In the series with Phytophthora infestans, the Efficacy in % is on record as 93%.
